In ChEMBL document CHEMBL2146404, “O-Hydroxyl- or o-amino benzylamine-tacrine hybrids: multifunctional biometals chelators, antioxidants, and inhibitors of cholinesterase activity and amyloid-β aggregation” (Bioorg Med Chem, 2012):
pIC50: −log10 of the molar value. Active and inactive are the calls of the source. The calls are words filed in the database; no cut-off is given here.

Legend:
[1] = Inhibition of […]-pretreated amyloid beta (1 to 42) self-aggregation at 20 uM after 48 hrs by thioflavin T based fluorometric assay
[2] = target: Cholinesterase (Equus caballus, UniProt P81908)
Description: Inhibition of equine serum BuChE using butyrylthiocholine chloride as substrate preincubated for 15 mins by Ellman's method

[3] = target: Acetylcholinesterase (Electrophorus electricus, UniProt O42275)
Description: Inhibition of electric eel AChE using acetylthiocholine chloride as substrate preincubated for 15 mins by Ellman's method

[4] = target: Acetylcholinesterase (Homo sapiens, UniProt P22303); assay: Inhibition of human recombinant AChE using acetylthiocholine chloride as substrate preincubated for 15 mins by Ellman's method
[5] = Metal chelating activity of the compound assessed as zinc ion complex formation at 40 uM after 30 mins by UV-vis spectrometry; format: functional
[6] = Metal chelating activity of the compound assessed as cupric ion complex formation at 40 uM after 30 mins by UV-vis spectrometry; format: functional
[7] = Metal chelating activity of the compound assessed as ferrous ion complex formation at 40 uM after 30 mins by UV-vis spectrometry; format: functional

Sequence of Acetylcholinesterase (Electrophorus electricus, UniProt O42275) (O42275 whole entry): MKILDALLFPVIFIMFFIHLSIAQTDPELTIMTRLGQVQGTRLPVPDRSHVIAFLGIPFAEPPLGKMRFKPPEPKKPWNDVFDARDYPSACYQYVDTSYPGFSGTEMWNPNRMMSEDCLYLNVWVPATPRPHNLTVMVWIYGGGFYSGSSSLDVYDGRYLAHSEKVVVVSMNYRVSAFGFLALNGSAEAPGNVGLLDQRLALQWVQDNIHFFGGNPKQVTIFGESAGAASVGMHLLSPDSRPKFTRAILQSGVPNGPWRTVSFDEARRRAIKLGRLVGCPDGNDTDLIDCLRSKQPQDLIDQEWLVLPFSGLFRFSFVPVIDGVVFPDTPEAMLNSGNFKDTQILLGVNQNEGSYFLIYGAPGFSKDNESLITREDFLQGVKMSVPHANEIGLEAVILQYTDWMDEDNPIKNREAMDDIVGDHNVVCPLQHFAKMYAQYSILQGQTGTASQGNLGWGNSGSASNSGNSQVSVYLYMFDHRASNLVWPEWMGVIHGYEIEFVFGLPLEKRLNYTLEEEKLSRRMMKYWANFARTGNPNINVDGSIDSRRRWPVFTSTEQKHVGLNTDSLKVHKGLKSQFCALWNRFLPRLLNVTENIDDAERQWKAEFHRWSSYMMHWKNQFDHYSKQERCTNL
Sequence of Acetylcholinesterase (Homo sapiens, UniProt P22303) (P22303 whole entry): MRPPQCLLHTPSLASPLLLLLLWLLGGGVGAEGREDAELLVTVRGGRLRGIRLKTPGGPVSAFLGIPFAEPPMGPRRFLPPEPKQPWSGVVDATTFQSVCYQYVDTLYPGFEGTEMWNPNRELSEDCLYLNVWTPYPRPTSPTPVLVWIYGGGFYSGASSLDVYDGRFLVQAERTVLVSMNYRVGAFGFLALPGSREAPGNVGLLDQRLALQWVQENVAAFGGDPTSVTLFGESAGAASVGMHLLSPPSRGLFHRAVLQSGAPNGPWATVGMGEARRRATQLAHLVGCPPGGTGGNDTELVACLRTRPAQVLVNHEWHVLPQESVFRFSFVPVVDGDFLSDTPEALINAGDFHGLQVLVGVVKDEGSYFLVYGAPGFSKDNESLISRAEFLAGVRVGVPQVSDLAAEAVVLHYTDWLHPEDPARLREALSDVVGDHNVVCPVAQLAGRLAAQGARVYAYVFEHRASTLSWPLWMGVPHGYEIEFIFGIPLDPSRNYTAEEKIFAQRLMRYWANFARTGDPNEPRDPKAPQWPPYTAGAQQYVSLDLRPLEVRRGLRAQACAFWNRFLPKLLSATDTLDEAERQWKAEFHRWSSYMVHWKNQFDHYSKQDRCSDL
Sequence of Cholinesterase (P81908 whole entry): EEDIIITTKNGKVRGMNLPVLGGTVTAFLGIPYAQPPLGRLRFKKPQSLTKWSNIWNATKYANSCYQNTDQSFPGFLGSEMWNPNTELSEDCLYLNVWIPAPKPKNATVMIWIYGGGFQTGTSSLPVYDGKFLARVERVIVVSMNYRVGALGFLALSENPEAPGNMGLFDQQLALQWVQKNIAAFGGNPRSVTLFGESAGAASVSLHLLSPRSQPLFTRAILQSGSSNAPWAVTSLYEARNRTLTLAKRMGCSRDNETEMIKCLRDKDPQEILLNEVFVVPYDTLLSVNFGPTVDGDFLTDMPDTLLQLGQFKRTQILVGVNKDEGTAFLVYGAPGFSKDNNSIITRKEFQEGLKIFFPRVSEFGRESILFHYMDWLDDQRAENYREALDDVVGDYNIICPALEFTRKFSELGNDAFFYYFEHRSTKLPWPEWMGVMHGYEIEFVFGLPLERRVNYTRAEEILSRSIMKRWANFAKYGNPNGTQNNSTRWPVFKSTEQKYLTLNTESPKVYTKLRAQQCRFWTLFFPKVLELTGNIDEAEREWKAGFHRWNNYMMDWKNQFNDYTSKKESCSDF

| Compound | inhibition [1] [%] | pIC50 [2] | pIC50 [3] | pIC50 [4] | Activity [5] | Activity [6] | Activity [7] |
| --- | --- | --- | --- | --- | --- | --- | --- |
| Oc1ccccc1CNCCCCCCCCNc1c2c(nc3cc(Cl)ccc13)CCCC2 | 25.8 | 7.73 | 8.17 | – | – | – | – |
| Oc1ccccc1CNCCCCCCNc1c2c(nc3ccccc13)CCCC2 | – | 8.02 | 7.60 | – | – | – | – |
| Oc1ccccc1CNCCCNc1c2c(nc3cc(Cl)ccc13)CCCC2 | – | 7.12 | 7.36 | – | – | – | – |
| c1ccc(CNCCCCCCCCNc2c3c(nc4ccccc24)CCCC3)nc1 | – | 8.52 | 8.53 | – | – | – | – |
| CN(C)c1ccccc1CNCCCCCCCNc1c2c(nc3ccccc13)CCCC2 | 30.7 | 8.53 | 8.46 | 8.29 | – | – | – |
| CN(C)c1ccccc1CNCCCCCCCCNc1c2c(nc3ccccc13)CCCC2 | 38.6 | 8.68 | 8.81 | 8.39 | – | – | – |
| Oc1ccccc1CNCCNc1c2c(nc3ccccc13)CCCC2 | – | 8.00 | 6.84 | – | – | – | – |
| CN(C)c1ccccc1CNCCCCCCCCCNc1c2c(nc3ccccc13)CCCC2 | 39.4 | 8.58 | 9.26 | 8.45 | Active | Active | Active |
| Oc1ccccc1CNCCCCNc1c2c(nc3ccccc13)CCCC2 | – | 7.69 | 6.60 | – | – | – | – |
| Oc1ccccc1CNCCCCNc1c2c(nc3cc(Cl)ccc13)CCCC2 | – | 7.55 | 6.90 | – | – | – | – |
| Oc1ccccc1CNCCCCCCCNc1c2c(nc3cc(Cl)ccc13)CCCC2 | – | 7.75 | 7.98 | – | – | – | – |
| Oc1ccccc1CNCCCCCCCNc1c2c(nc3ccccc13)CCCC2 | – | 8.23 | 8.02 | – | – | – | – |
| Oc1ccccc1CNCCNc1c2c(nc3cc(Cl)ccc13)CCCC2 | – | 8.00 | 7.65 | – | – | – | – |
| Oc1ccccc1CNCCCCCCCCCNc1c2c(nc3cc(Cl)ccc13)CCCC2 | – | 7.64 | 8.11 | – | – | – | – |
| Oc1ccccc1CNCCCNc1c2c(nc3ccccc13)CCCC2 | – | 7.34 | 6.88 | – | – | – | – |
| Oc1ccccc1CNCCCCCCNc1c2c(nc3cc(Cl)ccc13)CCCC2 | – | 7.95 | 7.37 | – | – | – | – |
| Oc1ccccc1CNCCCCCCCCNc1c2c(nc3ccccc13)CCCC2 | – | 8.20 | 8.21 | – | – | – | – |
| Oc1ccccc1CNCCCCCCCCCNc1c2c(nc3ccccc13)CCCC2 | – | 8.09 | 8.12 | – | – | – | – |
| CCN(CC)c1ccccc1CNCCCCCCCCNc1c2c(nc3ccccc13)CCCC2 | 40.1 | 8.55 | 8.87 | – | – | – | – |
